What was measured:
CYP3A4 = CYP3A4 (Homo sapiens, UniProt P08684); assay: Inhibition of metabolic enzymes in vitro, human liver microsomes, CYP3A4
Experimental: (§1) Test purpose: In this test, human liver microsomes and CYP enzyme-specific substrates were used to test the effects of different concentrations of compounds to be tested on metabolic rates of enzyme-specific substrates, so as to determine inhibitory effects of these compounds on CYP enzymes in human liver microsomes.
(§2) 1. preparing […] potassium phosphate buffer (pH 7.4);
(§3) 2. preparing stock solutions of compounds to be tested (10 mM), NADPH solutions (8 mM, which was 4 times the final concentration), positive compound stock solutions, substrate stock solutions and human liver microsome solutions (see the table below);
(§4) 4. preparing positive control inhibitor solutions: dissolving 8 μL of positive control inhibitor stock solutions in 12 μL of acetonitrile, and then using a mixed solution of 40% DMSO and 60% acetonitrile to perform a 1:3 gradient dilution as follows (wherein the concentration was 400 times the final concentration, which was described in the table below);
6. preparing mixed solutions of positive control compounds and human liver microsomes: adding 200 μL of 0.2 mg/mL human liver microsomes to a 96-well plate, and adding 1 μL of diluted solutions of positive control compounds;
7. dispensing 30 μL of mixed solutions of the compounds and human liver microsomes to a 96-well plate, and then adding […] substrate solutions: adding […] preheated NADPH solutions to a preheated reaction plate and mixing evenly to start the reaction;
8. incubating the reaction plate at 37° C.; 3A4 was reacted for 5 minutes; 1A2, 2C9 and 2D6 were reacted for 10 minutes; 2C19 was reacted for 45 minutes;
9, after completion of the addition, adding 120 μL of acetonitrile containing internal standard to terminate the reaction: after terminating the reaction, shaking the sample on a shaker at 600 rpm/min for 10 minutes and centrifuging same at 3220×g for 15 minutes; after centrifugation, taking out 50 μL of supernatant and mixing same with 50 μL of water for analysis by LC-MS/MS.
According to the following equation, the data was plotted and fitted using a dose-response model in GraphPad Prism software to calculate IC50.
Y=Bottom+(Top−Bottom)/(1+10^((Log IC50−X)×HillSlope))
X represents the logarithm concentration of the inhibitor, and Y represents the relative activity of the enzyme at a certain inhibitor concentration (relative to the condition without inhibitor).

CYP1A2 = molecular target: T1, CYP1A2 (Homo sapiens, UniProt P05177); assay: Inhibition of metabolic enzymes in vitro, human liver microsomes, CYP1A2; assay type: in vitro ADME; settings: substrate Phenacetin
T1 construct: human liver microsomes and CYP enzyme-specific substrates were used; from tissue; host or cells: human liver microsomes
T1 sequence (P05177 1-516): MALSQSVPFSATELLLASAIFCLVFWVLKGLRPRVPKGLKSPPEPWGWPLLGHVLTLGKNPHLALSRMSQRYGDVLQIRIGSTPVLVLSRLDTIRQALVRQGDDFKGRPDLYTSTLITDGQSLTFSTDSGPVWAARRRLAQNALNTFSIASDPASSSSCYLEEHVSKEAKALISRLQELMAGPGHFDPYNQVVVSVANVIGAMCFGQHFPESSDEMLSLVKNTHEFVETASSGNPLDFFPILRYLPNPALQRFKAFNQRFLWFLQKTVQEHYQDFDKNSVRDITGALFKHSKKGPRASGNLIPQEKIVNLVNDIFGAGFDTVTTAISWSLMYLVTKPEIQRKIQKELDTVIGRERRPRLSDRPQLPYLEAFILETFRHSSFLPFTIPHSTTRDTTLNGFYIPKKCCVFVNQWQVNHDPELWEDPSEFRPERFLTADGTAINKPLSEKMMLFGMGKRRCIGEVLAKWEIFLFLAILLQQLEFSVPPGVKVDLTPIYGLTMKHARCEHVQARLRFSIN
Experimental: as §1, §2, §3
(§5) 3. preparing solutions of compounds to be tested: dissolving 8 μL of 10 mM stock solution of compounds to be tested in 12 μL of acetonitrile, and then using a mixed solution of 40% DMSO and 60% acetonitrile to perform a 1:3 gradient dilution as follows (wherein the concentration was 400 times the final concentration): 4 mM, 1.333 mM, 0.444 mM, 0.148 mM, 0.0494 mM, 0.0165 mM, 0.00549 mM and 0 mM.
as §4, with “below); […]” for “below);”

CYP2C19 = molecular target: T2, CYP2C19 (Homo sapiens, UniProt P33261); assay: Inhibition of metabolic enzymes in vitro, human liver microsomes, CYP2C19; assay type: in vitro ADME; settings: substrate S-Mephenytoin
T2 construct: human liver microsomes and CYP enzyme-specific substrates were used; from tissue; host or cells: human liver microsomes
Experimental: as §1, §2, §3, §5
as §4, with “below); […]” for “below);”

CYP2C9 = molecular target: T3, CYP2C9 (Homo sapiens, UniProt P11712); assay: Inhibition of metabolic enzymes in vitro, human liver microsomes, CYP2C9; assay type: in vitro ADME; settings: substrate Diclofenac
T3 construct: human liver microsomes and CYP enzyme-specific substrates were used; from tissue; host or cells: human liver microsomes
Experimental: as §1, §2, §3, §5
as §4, with “below); […]” for “below);”

CYP2D6 = CYP2D6 (Homo sapiens, UniProt P10635); assay: Inhibition of metabolic enzymes in vitro, human liver microsomes, CYP2D6
Experimental: as §1, §2, §3, §5
as §4, with “below); […]” for “below);”

[1] = IC50 (μM) CYP3A4 (Midazolam), substrate Midazolam
[2] = IC50 (μM) CYP3A4 (Testosterone), substrate Testosterone

CYP3A4, sequence (P08684 whole entry): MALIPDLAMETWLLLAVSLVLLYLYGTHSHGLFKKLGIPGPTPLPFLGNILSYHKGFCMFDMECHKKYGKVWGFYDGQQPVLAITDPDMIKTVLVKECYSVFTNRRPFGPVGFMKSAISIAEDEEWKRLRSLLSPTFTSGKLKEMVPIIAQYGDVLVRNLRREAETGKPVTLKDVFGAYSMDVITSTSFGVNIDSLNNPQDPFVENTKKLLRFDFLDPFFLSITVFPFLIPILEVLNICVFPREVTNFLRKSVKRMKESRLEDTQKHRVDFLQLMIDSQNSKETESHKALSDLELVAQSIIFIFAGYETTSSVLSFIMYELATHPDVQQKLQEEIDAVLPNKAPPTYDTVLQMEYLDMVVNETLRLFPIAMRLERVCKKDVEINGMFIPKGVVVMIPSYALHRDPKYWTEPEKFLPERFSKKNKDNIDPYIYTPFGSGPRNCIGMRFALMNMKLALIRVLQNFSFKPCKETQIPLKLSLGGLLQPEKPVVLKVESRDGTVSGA
T2 sequence (P33261 whole entry): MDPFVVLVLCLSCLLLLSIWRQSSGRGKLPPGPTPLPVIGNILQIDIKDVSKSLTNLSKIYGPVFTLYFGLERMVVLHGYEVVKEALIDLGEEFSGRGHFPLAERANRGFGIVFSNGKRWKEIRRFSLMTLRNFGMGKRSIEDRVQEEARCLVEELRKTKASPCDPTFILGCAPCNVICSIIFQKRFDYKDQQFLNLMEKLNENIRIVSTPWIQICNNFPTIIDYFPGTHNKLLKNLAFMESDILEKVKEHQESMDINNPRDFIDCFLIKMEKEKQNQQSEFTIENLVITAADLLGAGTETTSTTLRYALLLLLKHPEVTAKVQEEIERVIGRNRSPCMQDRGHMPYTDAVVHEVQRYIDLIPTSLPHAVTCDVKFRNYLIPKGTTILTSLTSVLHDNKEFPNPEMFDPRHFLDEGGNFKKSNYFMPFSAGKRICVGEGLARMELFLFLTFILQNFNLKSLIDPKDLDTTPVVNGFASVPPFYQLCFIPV
T3 sequence (P11712 whole entry): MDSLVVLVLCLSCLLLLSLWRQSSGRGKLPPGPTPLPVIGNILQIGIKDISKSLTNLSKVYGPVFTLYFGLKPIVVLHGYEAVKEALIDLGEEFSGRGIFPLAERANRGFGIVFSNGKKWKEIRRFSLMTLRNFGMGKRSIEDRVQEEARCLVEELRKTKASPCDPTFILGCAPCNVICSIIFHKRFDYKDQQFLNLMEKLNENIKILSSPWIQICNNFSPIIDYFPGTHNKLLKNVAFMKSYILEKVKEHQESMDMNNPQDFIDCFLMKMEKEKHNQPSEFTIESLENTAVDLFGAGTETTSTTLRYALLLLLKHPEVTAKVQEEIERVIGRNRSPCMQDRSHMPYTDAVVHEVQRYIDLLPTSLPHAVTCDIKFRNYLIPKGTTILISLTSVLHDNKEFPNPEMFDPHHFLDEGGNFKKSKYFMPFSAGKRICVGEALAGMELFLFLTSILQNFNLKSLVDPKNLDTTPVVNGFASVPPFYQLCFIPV
CYP2D6, sequence (P10635 whole entry): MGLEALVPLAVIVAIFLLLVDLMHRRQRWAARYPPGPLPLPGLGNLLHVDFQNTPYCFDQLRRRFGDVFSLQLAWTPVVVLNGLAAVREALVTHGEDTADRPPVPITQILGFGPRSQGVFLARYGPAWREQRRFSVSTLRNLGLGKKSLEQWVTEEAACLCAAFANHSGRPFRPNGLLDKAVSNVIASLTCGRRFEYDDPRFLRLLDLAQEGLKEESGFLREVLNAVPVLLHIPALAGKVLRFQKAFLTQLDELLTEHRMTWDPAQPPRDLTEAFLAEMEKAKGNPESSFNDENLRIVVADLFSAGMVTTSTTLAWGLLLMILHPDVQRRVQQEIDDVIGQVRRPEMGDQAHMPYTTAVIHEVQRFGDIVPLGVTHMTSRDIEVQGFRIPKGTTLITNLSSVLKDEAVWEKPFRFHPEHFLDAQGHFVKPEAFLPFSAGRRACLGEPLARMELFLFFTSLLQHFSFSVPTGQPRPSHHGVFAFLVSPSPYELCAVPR

SMILES | IC50 (CYP3A4; [1]) [µM] | IC50 (CYP3A4; [2]) [µM] | IC50 (CYP1A2) [µM] | IC50 (CYP2C19) [µM] | IC50 (CYP2C9) [µM] | IC50 (CYP2D6) [µM]
C=CC(=O)N1CCN(c2nc(=O)n(-c3c(C)ccnc3C(C)C)c3nc(-c4c(O)cccc4F)c(F)cc23)[C@@H](C)C1 (atropisomer, axis not shown) [AMG-510] | 4.46 | > 10 | > 10 | > 10 | > 10 | > 10
C=C(F)C(=O)N1CCN(c2nc(OC[C@@H]3CCCN3C)nc3c2CCN(c2cccc4cccc(Cl)c24)C3)C[C@@H]1CC#N [MRTX849] | 5.92 | 7.85 | > 10 | > 10 | 2.29 | > 10

Reference: patent US20220315598A1, “Oxygen-containing Heterocyclic Compound, Preparation Method Therefor and Use Thereof” (SHANGHAI YINGLI PHARMACEUTICAL CO., LTD, priority 2019, published 2022)
